Experimental data: patent US9539298B2, “Lissencephaly therapeutic agent” (OSAKA CITY UNIVERSITY, priority 2010, dated 2017)

System: LIS1 heterozygous adult mice
Experiment: LIS1 protein in adult mouse brains after SNJ-1945 intraperitoneal administration
Format: in vivo
Details: three weeks after birth
Protocol: SNJ-1945 was dissolved in dimethyl sulfoxide (DMSO) at a concentration of 100 mg/ml, and intraperitoneally injected to LIS1 heterozygous mice so that the administration amount was 100 μg/per gram of body weight at the time of three weeks after birth. To determine the effect of SNJ-1945 administration, LIS1 proteins of normal adult mice and LIS1 heterozygous adult mice (administered with SNJ-1945) were measured. In the SNJ-1945 administration group, the brain tissues were taken at 0 hour (immediately after the administration), 1 hour, 2 hours, 4 hours, 8 hours, 12 hours, 16 hours, 24 hours, 48 hours, and 72 hours after the administration to measure LIS1 protein, so as to determine the effect of SNJ-1945 over time. Six mice for each group were used for the measurement of LIS1 protein (n=6).
For the measurement of LIS1 protein amount, the weight of the brains was immediately measured as soon as the brains were removed.

COCCOCCOC(=O)N[C@@H](CC(C)C)C(=O)N[C@@H](Cc1ccccc1)C(=O)C(=O)NC1CC1 [compound 17, ((1S)-1-((((1S)-1-Benzyl-2,3-dioxo-3-(cyclopropylamino)propyl)amino)carbonyl)-3-methylbutyl)carbamic acid 5-methoxy-3-oxapentyl ester]
LIS1 protein amount in adult brain (100 μg per gram of body weight IP, FIG. 8): recovered to substantially the normal level | duration of the effect on LIS1 protein after a single dose (100 μg/g IP): continued for at least three days
